Where two headings read alike, the source gives them in different places. Each block holds one compound with its values, some of them ahead of it.
What was measured:
Primary human T-cells = assay: Primary Human T-Cell Proliferation Assay Stimulated with IL-2 (CellTiter-Glo); assay type: cell-based; settings: read-out: IC50, Example 42
Summary of the method: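 Peripheral blood T-cells pre-activated with anti-CD3/anti-CD28 and IL-2 were washed free of IL-2, then cultured with compound plus IL-2 for 72 hours at 37° C, duplicate wells. Viability read as ATP by CellTiter-Glo luminescence; IC50 reported.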

[1] = test system: IL-4 stimulated expression of CD23 in human Ramos B cells (JAK-1 and JAK-3); assay: Assay for Ramos B-Cell Line Stimulated with IL-4 (CD23 upregulation, FACS); assay type: cell-based; settings: read-out: IC50, Example 41
Summary of the method: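 Read-out: anti-CD23-PE flow cytometry on Ramos B cells, giving IC50. Cells (5×10^4 per point, RPMI + 5% serum) get compound or DMSO for 1 h at 37 °C, then IL-4 50 units/mL final for 20-24 h.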

[2] = Homo sapiens, T-cell, primary human T-cells stimulated with IL-2, proliferation
[3] = Homo sapiens, Ramos, Ramos B cells stimulated with IL-4, CD23 expression by FACS
[4] = Homo sapiens, T-cell, primary human T-cell proliferation stimulated with IL-2
[5] = Homo sapiens, Ramos, Ramos B-cell line stimulated with IL-4, CD23 expression by FACS
[6] = primary human T-cell proliferation stimulated with IL-2
[7] = Ramos B-cell line stimulated with IL-4, CD23 expression by FACS
[8] = primary human T-cells stimulated with IL-2, proliferation
[9] = Ramos B cells stimulated with IL-4, CD23 expression by FACS

IC50 [1, 3]: 221 nM
Compound: NS(=O)(=O)c1ccc(Nc2ncc(F)c(Nc3ccc(CCCCF)cc3)n2)cc1 [VI-91, N2-(4-Aminosulfonylphenyl)-5-fluoro-N4-[4-(4-fluorobutyl)phenyl]-2,4-pyrimidinediamine]
IC50 (Primary human T-cells; [2]): 1230 nM

IC50 [1, 5]: 144 nM
Compound: NC(=O)OCCc1ccc(Nc2nc(Nc3ccc(Cl)c(S(N)(=O)=O)c3)ncc2F)cc1 [III-55, N4-{4-[2-(Aminocarbonyloxy)ethyl]phenyl}-N2-(3-aminosulfonyl-4-chlorophenyl)-5-fluoro-2,4-pyrimidinediamine]
IC50 (Primary human T-cells; [4]): 973 nM

IC50 [1, 7]: 147 nM
Compound: COc1cc(Nc2ncc(F)c(Nc3ccc(OC(C)(C)C#N)cc3)n2)ccc1S(N)(=O)=O [Compound I-77, N2-(4-Aminosulfonyl-3-methoxy)phenyl-N4-[4-(1-cyano-1-methyl)ethoxy]phenyl-5-fluoro-2,4-pyrimidinediamine]
IC50 (Primary human T-cells; [6]): 1620 nM

IC50 [1, 7]: 858 nM
Compound: N2-(3-Aminocarbonyl-5-methylphenyl)-5-fluoro-N2-[4-(1H-pyrazol-5-yl)amidophenyl)-2,4-pyrimidinediamine [II-22]
IC50 (Primary human T-cells; [6]): 7490 nM

IC50 [1, 9]: 3330 nM
Compound: NS(=O)(=O)c1ccc(Nc2ncc(F)c(Nc3ccc(Cn4ccnn4)cc3)n2)cc1 [III-96]
IC50 (Primary human T-cells; [8]): 2190 nM

IC50 [1, 9]: 197 nM
Compound: CCNC(=O)NCc1cccc(Nc2nc(Nc3ccc(S(N)(=O)=O)cc3)ncc2F)c1 [III-116, N2-(4-aminosulfonyl)phenyl-N4-(3-ethylaminocarbonylaminomethyl)phenyl-5-fluoro-2,4-pyrimidinediamine]
IC50 (Primary human T-cells; [8]): 3950 nM

IC50 [1, 3]: 85.8 nM
Compound: NS(=O)(=O)c1cccc(Nc2ncc(F)c(Nc3cccc4cccnc34)n2)c1 [VII-78, N2-(3-Aminosulfonylphenyl)-5-fluoro-N4-(quinolin-8-yl)-2,4-pyrimidinediamine]
IC50 (Primary human T-cells; [2]): 682 nM

IC50 [1, 3]: 236 nM
Compound: CN1C(=O)COc2ccc(Nc3nc(Nc4ccc(S(N)(=O)=O)cc4)ncc3F)cc21 [VII-40, N2-(4-Aminosulfonylphenyl)-5-fluoro-N4-(4-methyl-3-oxo-benz[1,4]oxazin-6-yl)-2,4-pyrimidinediamine]
IC50 (Primary human T-cells; [2]): 6480 nM

IC50 [1, 3]: 399 nM
Compound: COc1ccc(Nc2nc(Nc3ccc(Cl)c(S(N)(=O)=O)c3)ncc2F)nc1N [VII-8, N2-(3-Aminosulfonyl-4-chlorophenyl)-N4-(2-amino-3-methoxypyrid-6-yl)-5-fluoro-2,4-pyrimidinediamine]
IC50 (Primary human T-cells; [2]): 8630 nM

IC50 [1, 7]: 64.5 nM
Compound: Cc1ccc(Nc2ncc(F)c(Nc3ccc(CCC#N)c(C(F)(F)F)c3)n2)cc1S(N)(=O)=O [III-30, N4-(4-Cyanoethylene-3-trifluoromethylphenyl)-5-fluoro-N2-(4-methyl-3-aminosulfonylphenyl)-2,4-pyrimidinediamine]
IC50 (Primary human T-cells; [6]): 319 nM

IC50 [1, 3]: 739 nM
Compound: CC(C)(C)c1ccc(Nc2nc(Nc3ccc(Cl)c(S(N)(=O)=O)c3)ncc2F)cc1 [VI-43, N2-(3-Aminosulfonyl-4-chlorophenyl)-N4-(4-tert-butylphenyl)-5-fluoro-2,4-pyrimidinediamine]
IC50 (Primary human T-cells; [2]): 6140 nM

IC50 [1, 5]: 259 nM
Compound: CNC(=O)OCCc1ccc(Nc2nc(Nc3ccc(Cl)c(S(N)(=O)=O)c3)ncc2F)cc1 [III-61, N2-(3-Aminosulfonyl-4-chlorophenyl)-5-fluoro-N4-{4-[2-(methylaminocarbonyloxy)ethyl]phenyl}-2,4-pyrimidinediamine]
IC50 (Primary human T-cells; [4]): 1080 nM

IC50 [1, 3]: 13.2 nM
Compound: COc1ccc(Nc2nc(Nc3cc(C)c(OC)c(S(N)(=O)=O)c3)ncc2F)cc1Cl [VI-30, N2-(3-Aminosulfonyl-4-methoxy-5-methylphenyl)-N4-(3-chloro-4-methoxyphenyl)-5-fluoro-2,4-pyrimidinediamine]
IC50 (Primary human T-cells; [2]): 170 nM

IC50 [1, 9]: 197 nM
Compound: CCCN(Cc1ccc(Nc2nc(Nc3cccc(S(N)(=O)=O)c3)ncc2F)cc1)C(N)=O [III-126, N2-(3-aminosulfonyl)phenyl-N4-[4-(N-carbamoyl-N-propyl)aminomethyl]phenyl-5-fluoro-2,4-pyrimidinediamine]
IC50 (Primary human T-cells; [8]): 470 nM

IC50 [1, 9]: 541 nM
Compound: CC1(C)Oc2cc(Nc3nc(Nc4cccc(S(N)(=O)=O)c4)ncc3F)cnc2NC1=O [VII-51, N2-(3-Aminosulfonylphenyl)-N4-[2,2-dimethyl-3-oxo-4H-5-pyrid[1,4]oxazin-7-yl]-5-fluoro-2,4-pyrimidinediamine]
IC50 (Primary human T-cells; [8]): 1790 nM

IC50 [1, 7]: 120 nM
Compound: COc1cc(Nc2ncc(F)c(Nc3ccc(OCC#N)c(C)c3)n2)ccc1S(N)(=O)=O [Compound I-29, N2-(4-Aminosulfonyl-3-methoxy)phenyl-N4-(4-cyanomethoxy-3-methyl)phenyl-5-fluoro-2,4-pyrimidinediamine]
IC50 (Primary human T-cells; [6]): 502 nM

IC50 [1, 7]: 198 nM
Compound: NS(=O)(=O)c1ccc(Nc2ncc(F)c(Nc3cccc(CNC(=O)C4CC4)c3)n2)cc1 [III-38, N2-(4-aminosulfonyl)phenyl-N4-(3-cyclopropylcarbonylaminomethyl)phenyl-5-fluoro-2,4-pyrimidinediamine]
IC50 (Primary human T-cells; [6]): 1130 nM

IC50 [1, 7]: 294 nM
Compound: NS(=O)(=O)c1cccc(Nc2ncc(F)c(Nc3ccc(CNC(=O)C4CC4)cc3)n2)c1 [III-42, N2-(3-aminosulfonyl)phenyl-N4-(4-cyclopropylcarbonylaminomethyl)phenyl-5-fluoro-2,4-pyrimidinediamine]
IC50 (Primary human T-cells; [6]): 641 nM

IC50 [1, 7]: 117 nM
Compound: NS(=O)(=O)c1cccc(Nc2ncc(F)c(Nc3ccc(OCc4ccccn4)c(Cl)c3)n2)c1 [Compound I-171, N2-(3-Aminosulfonylphenyl)-5-fluoro-N4-[4-(2-pyridinyl)-3-chloromethyleneoxyphenyl]-2,4-pyrimidinediamine]
IC50 (Primary human T-cells; [6]): 415 nM

IC50 [1, 3]: 202 nM
Compound: C#CCOc1cccc(Nc2nc(Nc3ccc(C)c(S(N)(=O)=O)c3)ncc2F)c1 [VI-57, N2-(3-Aminosulfonyl-4-methylphenyl)-5-fluoro-N4-[3-(prop-2-ynyloxy)phenyl]-2,4-pyrimidinediamine]
IC50 (Primary human T-cells; [2]): 1180 nM

IC50 [1, 3]: 206 nM
Compound: NS(=O)(=O)c1cc(Nc2ncc(F)c(Nc3cccc4cccnc34)n2)ccc1F [VII-79, N2-(3-Aminosulfonyl-4-fluorophenyl)-5-fluoro-N4-(quinolin-8-yl)-2,4-pyrimidinediamine]
IC50 (Primary human T-cells; [2]): 3200 nM

IC50 [1, 9]: 240 nM
Compound: Cc1ccc(Nc2ncc(F)c(Nc3ccc(Cn4cncn4)cc3)n2)cc1S(N)(=O)=O [III-101, N2-(3-Aminosulfonyl-4-methylphenyl)-5-fluoro-N4-{4-[1-(1,2,4-thazolyl)methyl]phenyl}-2,4-pyrimidinediamine]
IC50 (Primary human T-cells; [8]): 446 nM

IC50 [1, 3]: 502 nM
Compound: COc1ccc(Nc2nc(Nc3cccc(S(N)(=O)=O)c3)ncc2F)nc1N [VII-7, N2-(3-Aminosulfonylphenyl)-N4-(2-amino-3-methoxypyrid-6-yl)-5-fluoro-2,4-pyrimidinediamine]
IC50 (Primary human T-cells; [2]): 3920 nM

IC50 [1, 9]: 173 nM
Compound: CCNC(=O)NCCc1ccc(Nc2nc(Nc3cccc(S(N)(=O)=O)c3)ncc2F)cc1 [III-123, N2-(3-aminosulfonyl)phenyl-N4-[4-(2-ethylaminocarbonylamino)ethyl]phenyl-5-fluoro-2,4-pyrimidinediamine]
IC50 (Primary human T-cells; [8]): 1390 nM

IC50 [1, 3]: 655 nM
Compound: CCNC(=O)NCc1ccc(Nc2nc(Nc3cccc(S(N)(=O)=O)c3)ncc2F)cc1 [III-120, N2-(3-Aminosulfonylphenyl]-N4-(4-ethylaminocarbonylaminomethylphenyl)-5-fluoro-2,4-pyrimidinediamine]
IC50 (Primary human T-cells; [2]): 554 nM

IC50 [1, 9]: 14100 nM
Compound: Cc1ccc(Nc2ncc(F)c(NC3CN(Cc4ccccc4)CCC3C)n2)cc1S(N)(=O)=O (racemic) [VII-3, Racemic N2-(3-aminosulfonyl-4-methylphenyl)-N4-(1-benzyl-4-methylpiperidin-3-yl)-5-fluoro-2,4-pyrimidinediamine]
IC50 (Primary human T-cells; [8]): 16500 nM

IC50 [1, 3]: 223 nM
Compound: COC(=O)c1ccc(Nc2nc(Nc3cccc(S(N)(=O)=O)c3)ncc2F)s1 [IX-47, N2-(3-Aminosulfonylphenyl)-5-fluoro-N4-(5-methoxycarbonyl-thiophene-2-yl)-2,4-pyrimidinediamine]
IC50 (Primary human T-cells; [2]): 2390 nM

IC50 [1, 7]: 635 nM
Compound: N#CCC(=O)Nc1ccc(Nc2nc(Nc3cccc(S(N)(=O)=O)c3)ncc2F)cc1 [Compound I-78, N2-(3-Aminosulfonylphenyl)-N4-[4-(N-cyanoacetyl)aminophneyl]-5-fluoro-2,4-pyrimidinediamine]
IC50 (Primary human T-cells; [6]): 1210 nM

IC50 [1, 3]: 166 nM
Compound: NS(=O)(=O)c1ccc(Nc2ncc(F)c(Nc3ccc(-c4cnco4)cc3)n2)cc1 [IV-8, N2-(4-Aminosulfonylphenyl)-5-fluoro-N4-[4-(1,3-oxazol-5-yl)phenyl]-2,4-pyrimidinediamine]
IC50 (Primary human T-cells; [2]): 627 nM

IC50 [1, 5]: 169 nM
Compound: NS(=O)(=O)c1ccc(Nc2ncc(F)c(NCCc3ccc(-c4ccncc4)cc3)n2)cc1 [III-79, N2-(4-Aminosulfonylphenyl)-5-fluoro-N4-[4-(4-pyridinyl)phenethyl]-2,4-pyrimidinediamine]
IC50 (Primary human T-cells; [4]): 967 nM

IC50 [1, 9]: 333 nM
Compound: Cc1ccc(Nc2ncc(F)c(Nc3ccc(OC(F)(F)F)cc3)n2)cc1S(N)(=O)=O [VI-32, N2-(3-aminosulfonyl-4-methylphenyl)-5-fluoro-N4-(4-trofluoromethoxyphenyl)-2,4-pyrimidinediamine]
IC50 (Primary human T-cells; [8]): 1660 nM

Source: patent US11827628B2, “Compositions and methods for inhibition of the JAK pathway” (Rigel Pharmaceuticals, Inc., priority 2005, dated 2023)
